# Reference: patent US5958966A, “Treatment of aberrant cellular states with biomodulators” (University of New Mexico, priority 1995, dated 1999)
# Entries after “also recorded” stand apart in the source; their conditions may differ.
# Assays:
# B16 melanoma cells [1] = assay: effect of swainsonine on B16 melanoma solid tumor growth; assay type: in vivo, mouse; conditions: for inhibition of B16 growth: 1.0, 0.01 and 0.001 μg Sw (p<0.5)
# Experimental: The B16 melanoma cells were purchased from American Type Culture Collection (ATCC). They were maintained in complete A-MEM (SIGMA) (with 10% fetal calf serum (FCS) (Sigma), 100 U/ml penicillin (Sigma), 100 μg/ml streptomycin (Sigma) and 2 mM utamine (Sigma)) in Corning 75 cm^2 straight necked flasks (T75) and grown with 5.5% CO2 in air with 95% humidity in a New Brunswick Scientific water jacketed incubator. […] They were harvested using 1× Trypsin-EDTA (Sigma), centrifuged at 100×g with a Beckman TJ6 centrifuge, counted using a hemocytometer and stained with trypan blue to determine viability. The cells used for injection into the mice were washed three times in phosphate buffered saline (PBS), counted and resuspended in PBS at a final concentration of 6×10^6 cells per ml.
# The swainsonine, purchased from Boehringer Mannheim, was initially suspended in PBS at 100 μg/ml. Subsequent dilutions utilized in the following experiments were made in PBS.
# Fifteen female C57B1/6 mice (6 weeks old, from Harlan Sprague Dawley Laboratories) were treated 3 times per week on a Monday-Wednesday-Friday (MWF) schedule for three weeks prior to the injection of the 6×10^5 B16 melanoma cells. The treatment consisted of 0.1 ml (total volume) intraperitoneal injections of swainsonine in the mornings before 9:00 am. The treatment groups were as follows:
# The MWF treatment with the swainsonine continued after the tumor cell injection until the termination of the study. Once the tumor was palpable, electronic calipers were used to measure the length (l), width (w) and depth (d) of the tumor. The volume of the tumor was then determined by V=πr^2 ×d, with the assumption that the tumor is a […], then r=(l+w)/4.
# The effect of swainsonine on the growth of B16 melanoma solid tumors in vivo was investigated by pretreating the mice for 3 weeks and then injecting melanoma cells into the right shoulder area. Palpable tumors in the control group (0.0 μg Sw) were present on day 5 post tumor cell injection. These tumors were the size of a grain of rice and could not be accurately measured. FIG. 66 graphically presents tumor growth rate versus time. Tumors whose size could be reliably measured were present on day 7 in the controls (Table I). […] This was a delay of two day in both instances. The 0.1 μg Sw slowed growth of the melanoma tumor. The tumors in the 0.1 μg Sw group were 74% (p=0.03) smaller in size on day 9 compared to the controls and 68% (p=0.003) smaller on day 11.
# B16 melanoma cells [2] = assay: effect of swainsonine on cytotoxic T-lymphocytes (51Cr release); assay type: in vivo, mouse
# Experimental: The cytotoxicity assay used two targets: YAC-1, for natural killer cell targets and B16 melanoma cells, for cytolytic T-cell targets. The YAC-1 cells were labelled in GKN (ucose/KCl/NaCl) with ^51 Cr (NEN-DuPont, 400-1200 Ci/g activity) for 60 min. The B16's were ^51 Cr labelled in complete α-MEM media for 60 min. Both targets were washed twice through whole fetal calf serum to remove damaged and dead cells and then suspended in complete RPMI at a final concentration of 1×10^5 cells/ml. The spleen cells (effector cells) were plated in round bottom 96 well trays starting at 1×10^7 cells/ml (100 μl/well), using a halving dilution that provided splenocyte concentrations of 10^6, 5×10^5, 2.5×10^5, 1.25×10^5, 6.25×10^4 and 3.125×10^4, all done in triplicate. The target cells were added at 1×10^4 cell/100 μl/well; this gave an effector:target cell ratio ranging from 100:1 to 3:1. Controls included spontaneous ^51 Cr release and 100% lysis (10% triton treatment). The trays were centrifuged at 50×g for 5 min. and incubated in a CO2 incubator at 37° C. for 16 hours. The trays were spun again at 50×g for 5 minutes and 100 μl removed from each well for counting. A Packard gamma counter (United Technologies) was used for counting. Each sample was counted for 1 min. giving a 5% counting efficiency. The following equation was used to determine percent lysis.
# The effector:target ratios were then plotted against percent lysis and a simple line equation was determined for each treatment group. The slope of this line was then used to determine the total effector kill efficiency.
# The ^51 Cr cytotoxicity assay was also run with the B16 melanoma cells as the target and the splenocytes from the same mice as above as the effector cells. The baseline mice (no tumor/no Sw) and the control mice (tumor/no SW) had very similar line shapes and slopes. There were significant differences (p=0.03) between the presence and absence of tumor (see Table in FIG. 68).
# lymphoid IL-2R / LAK = conditions: Bowlin et al. and further work; listed as Sw; cited from earlier work
# solid tumor models = conditions: Dennis 1986, 1989, 1990; cited from earlier work
# α-mannosidase II = conditions: cited from earlier work
compound,measurement,setting,value
"O[C@H]1[C@H]2[C@H](O)CCCN2C[C@H]1O [Swainsonine, swainsonine]",delay of onset of tumor growth,B16 melanoma cells [1]; 0.1 μg Sw,two
same,tumor size reduction versus control,"B16 melanoma cells [1]; 0.1 μg Sw, day 9, p=0.03",74%
same,tumor size reduction versus control,"B16 melanoma cells [1]; 0.1 μg Sw, day 11, p=0.003",68%
same,first day of palpable tumors,"B16 melanoma cells [1]; 0.1 μg Sw, control day 5",7 days
same,first day of measurable tumors,"B16 melanoma cells [1]; 0.1 μg Sw, control day 7",9 days
same,effect on growth,B16 melanoma cells [1]; 1.0 μg Sw,causes enhanced growth
same,inhibition of B16 growth,B16 melanoma cells [1],no effect on delaying growth
same,inhibition of B16 growth,B16 melanoma cells [1]; listed as Sw,less effective at inhibiting the B16 growth
same,CTL activity in words,"B16 melanoma cells [2]; 0.1 μg Sw for 3 weeks, listed as Sw",greater than that of the control and of the 0.01 μg treated mice; also recorded: significant increase in the CTL activity
same,increase in line slope above baseline,"B16 melanoma cells [2]; 0.1 μg Sw, day 7 tumor",228%
same,increase in line slope over control mice with day 7 tumor,"B16 melanoma cells [2]; 0.1 μg Sw, day 7 tumor",127%
same,"effect on IL-2R expression, IL-2 induced proliferation and LAK induction",lymphoid IL-2R / LAK,augmented lymphoid IL-2R expression and IL-2 induced proliferation following mitogenic stimulation; also recorded: augmented the LAK induction at normally sub-optimal stimulation doses
same,growth in other solid tumor models,solid tumor models,delay growth in several other solid tumor models
same,inhibition of α-mannosidase II / anticancer effects,α-mannosidase II,known to have anticancer effects possibly mediated through its inhibition of α-mannosidase II
